# Key:
# [1] = test system: P388; test: Leukopenia % change in WBC at optimal dose on 3rd day.; format: functional, Mus musculus
# [2] = test system: P388; test: Maximum % T/C against P-388 murine leukemia cells in mice.; format: functional, Mus musculus
# [3] = test system: P388; test: Maximum % T/C with mitomycin C against P-388 murine leukemia cells in mice.; format: functional, Mus musculus
# [4] = test system: P388; test: Minimum effective dose required for antitumor activity against P-388 murine leukemia cells in mice.; format: functional; conditions: Mus musculus, read-out: MED
# [5] = test system: P388; test: Optimal dose required for antitumor activity against P-388 murine leukemia cells in mice.; format: functional, Mus musculus
# [6] = E1/2 value related to the saturated calomal electrode.; format: ADME; set-up: unit not given here
# [7] = test system: B16; test: Average weight change after ip administration of a dose of 1 mg/kg/day in B-16 melanoma in mice; format: functional, Mus musculus; conditions: route intraperitoneal
# [8] = test system: B16; test: Average weight change after ip administration of a dose of 2 mg/kg/day in B-16 melanoma in mice; format: functional, Mus musculus; conditions: route intraperitoneal
# [9] = test system: B16; test: Average weight change after ip administration of a dose of 3 mg/kg/day in B-16 melanoma in mice; format: functional, Mus musculus; conditions: route intraperitoneal
# [10] = test system: B16; test: Average weight change after ip administration of a dose of 4 mg/kg/day in B-16 melanoma in mice; format: functional, Mus musculus; conditions: route intraperitoneal
# [11] = test system: B16; test: Tumor free survivors on 62nd day after ip administration of a dose of 1 mg/kg/day in B-16 melanoma in mice; format: functional, Mus musculus; conditions: route intraperitoneal
# [12] = test system: B16; test: Tumor free survivors on 62nd day after ip administration of a dose of 2 mg/kg/day in B-16 melanoma in mice; format: functional, Mus musculus; conditions: route intraperitoneal
# [13] = test system: B16; test: Tumor free survivors on 62nd day after ip administration of a dose of 3 mg/kg/day in B-16 melanoma in mice; format: functional, Mus musculus; conditions: route intraperitoneal
# [14] = test system: B16; test: Tumor free survivors on 62nd day after ip administration of a dose of 4 mg/kg/day in B-16 melanoma in mice; format: functional, Mus musculus; conditions: route intraperitoneal
# [15] = test system: B16; test: Median survival time (% T/C) after ip administration of a dose of 1 mg/kg/day in B-16 melanoma in mice; format: functional, Mus musculus; conditions: route intraperitoneal
# [16] = test system: B16; test: Median survival time (% T/C) after ip administration of a dose of 2 mg/kg/day in B-16 melanoma in mice; format: functional, Mus musculus; conditions: route intraperitoneal
# [17] = test system: B16; test: Median survival time (% T/C) after ip administration of a dose of 3 mg/kg/day in B-16 melanoma in mice; format: functional, Mus musculus; conditions: route intraperitoneal
# [18] = test system: B16; test: Median survival time (% T/C) after ip administration of a dose of 4 mg/kg/day inB-16 melanoma in mice; format: functional, Mus musculus; conditions: route intraperitoneal
# [19] = test system: B16; test: Average weight change after ip administration of a dose of 6 mg/kg/day in B-16 melanoma in mice; format: functional, Mus musculus; conditions: route intraperitoneal
# [20] = test system: B16; test: Tumor free survivors on 62nd day after ip administration of a dose of 4 mg/kg/day in B-16 melanoma in mice; out of 10; format: functional, Mus musculus; conditions: route intraperitoneal
# [21] = test system: B16; test: Tumor free survivors on 62nd day after ip administration of a dose of 6 mg/kg/day in B-16 melanoma in mice; out of 10; format: functional, Mus musculus; conditions: route intraperitoneal
# [22] = test system: B16; test: Median survival time (% T/C) after ip administration of a dose of 4 mg/kg/day in B-16 melanoma in mice; format: functional, Mus musculus; conditions: route intraperitoneal
# [23] = test system: B16; test: Median survival time (% T/C) after ip administration of a dose of 6 mg/kg/day in B-16 melanoma in mice; format: functional, Mus musculus; conditions: route intraperitoneal
# [24] = test system: B16; test: Average weight change after ip administration of a dose of 5 mg/kg/day inB-16 melanoma in mice; format: functional, Mus musculus; conditions: route intraperitoneal
# [25] = test system: B16; test: Tumor free survivors on 62nd day after ip administration of a dose of 2 mg/kg/day in B-16 melanoma in mice; out of 10; format: functional, Mus musculus; conditions: route intraperitoneal
Structure (SMILES),Change in WBC [1] [%],T/C [2] [%],T/C [3] [%],minimal effective dose [4] [mg/kg],Dose [5] [mg/kg],E1/2 [6],further results
COC12[C@@H]3N[C@@H]3CN1C1=C(C(=O)C(N3CC3c3ccccc3)=C(C)C1=O)[C@@H]2COC(N)=O (some centres not stated),38,311,200,0.2,3.2,–,–
COC12[C@@H]3N[C@@H]3CN1C1=C(C(=O)C(N3CCNCC3)=C(C)C1=O)[C@@H]2COC(N)=O (some centres not stated),–,200,288,0.2,12.8,0.26,–
CO[C@@]12[C@H](COC(N)=O)C3=C(C(=O)C(C)=C(N)C3=O)N1C[C@@H]1N[C@@H]12 [MITOMYCIN],-42,161,–,0.2,3.2,-0.45,Average weight change [7]: 0.2 g; Average weight change [8]: 0.5 g; Average weight change [9]: -0.1 g; Average weight change [10]: -0.1 g; Cures [11]: 0; Cures [12]: 0; Cures [13]: 0; Cures [14]: 0; T/C [15]: 155%; T/C [16]: 152%; T/C [17]: 165%; T/C [18]: 200%
COC12[C@@H]3N[C@@H]3CN1C1=C(C(=O)C(N(C)C)=C(C)C1=O)[C@@H]2COC(N)=O (some centres not stated),–,238,325,0.2,25.6,–,–
CCOC(=O)C1CN1C1=C(C)C(=O)C2=C(C1=O)[C@H](COC(N)=O)C1(OC)[C@@H]3N[C@@H]3CN21 (some centres not stated),–,133,233,–,12.8,–,–
COC12[C@@H]3N[C@@H]3CN1C1=C(C(=O)C(N3CCCC(C)C3)=C(C)C1=O)[C@@H]2COC(N)=O (some centres not stated),–,238,319,0.2,25.6,–,–
COC12[C@@H]3N[C@@H]3CN1C1=C(C(=O)C(N3CCSC3)=C(C)C1=O)[C@@H]2COC(N)=O (some centres not stated),69,222,183,0.2,25.6,0.39,–
COC(=O)C1CN1C1=C(C)C(=O)C2=C(C1=O)[C@H](COC(N)=O)C1(OC)[C@@H]3N[C@@H]3CN21 (some centres not stated),–,147,288,1.6,6.4,–,–
COC12[C@@H]3N[C@@H]3CN1C1=C(C(=O)C(N3CCN(C)CC3)=C(C)C1=O)[C@@H]2COC(N)=O (some centres not stated),34,261,183,0.2,3.2,0.24,–
COC12[C@@H]3N[C@@H]3CN1C1=C(C(=O)C(N3CCc4ccccc43)=C(C)C1=O)[C@@H]2COC(N)=O (some centres not stated),–,150,288,0.8,12.8,–,–
COC12[C@@H]3N[C@@H]3CN1C1=C(C(=O)C(N3CCSCC3)=C(C)C1=O)[C@@H]2COC(N)=O (some centres not stated),44,211,178,0.4,3.2,–,–
COC12[C@@H]3N[C@@H]3CN1C1=C(C(=O)C(N3CCN(C=O)CC3)=C(C)C1=O)[C@@H]2COC(N)=O (some centres not stated),16,294,224,0.2,6.4,0.23,Average weight change [7]: 0 g; Average weight change [8]: -0.1 g; Average weight change [9]: -0.4 g; Average weight change [10]: -1 g; Cures [11]: 1; Cures [12]: 5; Cures [13]: 6; T/C [15]: 210%; T/C [16]: 275%; T/C [17]: 310%; Average weight change [19]: -0.7 g; Cures [20]: 6; Cures [21]: 2; T/C [22]: 310%; T/C [23]: 88%
COC12[C@@H]3N[C@@H]3CN1C1=C(C(=O)C(N3CCCC(O)C3)=C(C)C1=O)[C@@H]2COC(N)=O (some centres not stated),55,250,161,0.2,12.8,0.26,–
COC12[C@@H]3N[C@@H]3CN1C1=C(C(=O)C(N3CC3)=C(C)C1=O)[C@@H]2COC(N)=O (some centres not stated),11,266,300,0.025,1.6,0.31,–
COC12[C@@H]3N[C@@H]3CN1C1=C(C(=O)C(N3CCCCC3)=C(C)C1=O)[C@@H]2COC(N)=O (some centres not stated),–,183,322,0.2,12.8,0.27,–
COC12[C@@H]3N[C@@H]3CN1C1=C(C(=O)C(N3CC3C#N)=C(C)C1=O)[C@@H]2COC(N)=O (some centres not stated),2,339,228,0.2,12.8,0.3,Average weight change [8]: 0 g; Average weight change [9]: 0 g; Average weight change [24]: -1.3 g; Cures [25]: 5; Cures [13]: 0; T/C [16]: 307%; T/C [17]: 65%
COC12[C@@H]3N[C@@H]3CN1C1=C(C(=O)C(N3CCC(N4CCCCC4)CC3)=C(C)C1=O)[C@@H]2COC(N)=O (some centres not stated),29,194,200,1.6,12.8,0.28,–
COC12[C@@H]3N[C@@H]3CN1C1=C(C(=O)C(N3CCC(O)C3)=C(C)C1=O)[C@@H]2COC(N)=O (some centres not stated),–,163,219,0.8,25.6,0.37,–
COC12[C@@H]3N[C@@H]3CN1C1=C(C(=O)C(N(C)CCN(C)C)=C(C)C1=O)[C@@H]2COC(N)=O (some centres not stated),–,267,211,0.8,25.6,0.33,–
COC12[C@@H]3N[C@@H]3CN1C1=C(C(=O)C(N3CCOCC3)=C(C)C1=O)[C@@H]2COC(N)=O (some centres not stated),82,271,224,0.4,25.6,0.39,–
CCN(CC)C1=C(C)C(=O)C2=C(C1=O)[C@H](COC(N)=O)C1(OC)[C@@H]3N[C@@H]3CN21 (some centres not stated),–,222,211,1.6,25.6,0.26,–
COC12[C@@H]3N[C@@H]3CN1C1=C(C(=O)C(N3CCC(O)(O)CC3)=C(C)C1=O)[C@@H]2COC(N)=O (some centres not stated),–,231,219,0.2,25.6,0.28,–
COC12[C@@H]3N[C@@H]3CN1C1=C(C(=O)C(N3CCN(c4ccc(C(C)=O)cc4)CC3)=C(C)C1=O)[C@@H]2COC(N)=O (some centres not stated),40,161,200,0.4,3.2,–,–
COC12[C@@H]3N[C@@H]3CN1C1=C(C(=O)C(N3CC=CC3)=C(C)C1=O)[C@@H]2COC(N)=O (some centres not stated),-13,216,268,0.2,12.8,–,–
COC12[C@@H]3N[C@@H]3CN1C1=C(C(=O)C(N3CC3C)=C(C)C1=O)[C@@H]2COC(N)=O (some centres not stated),24,233,250,0.1,3.2,0.32,–
COC12[C@@H]3N[C@@H]3CN1C1=C(C(=O)C(N3CC3C(N)=O)=C(C)C1=O)[C@@H]2COC(N)=O (some centres not stated),–,206,233,0.8,6.4,–,–
COC12[C@@H]3N[C@@H]3CN1C1=C(C(=O)C(N3CCCC3)=C(C)C1=O)[C@@H]2COC(N)=O (some centres not stated),64,>333,161,0.4,25.6,0.35,–
